# Assay results as given in PMC8213153 (PLoS ONE, 2021).
# Read-outs that look alike come from different tables or passages of the source.
# Tests used:
# Type in all cases: cell-based
# [1] = Cytotoxicity (MTT) assay of single and dual combinatory drugs; details: human
# Method: Each tablet containing drugs was triturated and mixed until homogenous. Approximately 50 mg equivalent mass of drugs were weighed and added to dimethyl sulfoxide in order to solubilize the drugs. The suspension was sonicated in a water bath for 15 minutes before being added to Rosewell Park Memorial Institute (RPMI) media, sonicated again and vortexed to mix it until homogenous. The suspension was then filtered through a polycarbonate membrane with a pore size of 0.45 μm and then a pore size of 0.22 μm under aseptic conditions. The filtrate was mixed with 10% foetal bovine serum and penicillin streptomycin before being vortexed to produce a homogenous mixture to be used as a stock solution. The samples were prepared by diluting the stock solution of each drug with RPMI complete media at an appropriate level of dilution to produce a determined concentration. The dual combinatory drugs mixtures were prepared by mixing appropriate amounts of two drug stock solutions in order to produce a final concentration at the required level. The combinatory drugs were evaluated at both constant and non-constant ratios to evaluate their effects on the cytotoxicity, including; antagonistic, synergistic, or additive. A constant ratio of the mixture was achieved by adding drug solutions at the same ratio, thereby increasing each drug concentration, to produce dose escalation. In contrast, at a non-constant ratio, a fixed determined concentration of drug was added to increased doses of other drug solution in order to produce different levels of drug concentration.
# The cytotoxic concentration (CC50) of drugs was performed by means of MTT assay at the Stem Cell Research and Development Center, Universitas Airlangga using human umbilical cord mesenchymal stem cells which had been obtained from human placenta tissue as approved by the Ethical Committee of Universitas Airlangga Hospital (Certificate number 101/KEH/2019 dated January 10, 2019). The cells were prepared as the primary cell culture and used for the cytotoxicity assay because of their sensitivity to chemicals. Cells were seeded into 96-well microplates at a concentration of 1x10^3 cells/well in 100 μL Alpha Minimum Essentials Medium (α-MEM, Gibco, USA) supplemented with 10% foetal bovine serum, 1% penicillin-streptomycin and 1% amphotericin-B. The plates were then incubated in a CO2 incubator at 37°C with 5% CO2 for 24 hours, at which point, the supernatant was replaced with α-MEM containing drugs at each concentration and incubated for a further 48 hours. Approximately 25μL of 3-(4,5-Dimethylthiazol-2-yl)-2,5-diphenyl tetrazolium-bromide (MTT) reagent at a concentration of 5mg/mL was subsequently added to each well and incubated for four hours at 37°C with 5% CO2. Purple formazan crystals were formed and observed under an inverted microscope. Dimethyl sulfoxide was added to each well with the complete solubilisation of formazan crystals subsequently being observed. The greater the number of formazan crystals formed, the lower the toxicity of the samples which were read for optical density of formazan using a multi reader at a measurement wavelength of 595 nm (Promega Glomax, USA). The CC50 value was analyzed by CompuSyn software (the ComboSyn Inc., accessed from www.combosyn.com).
# In this study, the cytotoxicity assay was evaluated for single and dual combinatory drugs during a period of 48 hours of drug incubation. This assay was intended to evaluate the toxicity of dual combinatory drugs on normal cells. The combination ratios were calculated taking into consideration the usual therapeutic doses and plasma peak concentrations of the drugs. To determine this cytotoxicity, the drugs were mixed at both constant and non-constant ratios.
# SARS-CoV-2 virus = experiment: microbe, parasite or virus in culture; details: for IC50: Severe acute respiratory syndrome coronavirus 2, Vero
# IL-10 = IL-10 level of virus-infected Vero cells (ELISA)
# Method: (§1) To enable measurement of IL-6, IL-10 and TNF-α levels, the culture medium of the treated cells was collected in sterile micro-tubes and centrifuged at 3,500 rpm for 20 minutes. The supernatants were carefully collected and diluted with aquadest at a 1:5 volume ratio and vortexed until homogenous. The samples were deposited onto a well-plate, added to ELISA reagents (Bioassay Technology Laboratory, Shanghai, China), and incubated at 37°C for 60 minutes. Reagent substrate solution was then added to the well and incubated for ten minutes at 37°C. The samples were measured for antigen concentration using the optical density (OD) plotted into the standard curves of IL-6, IL-10, and TNF-α.
# IL-6 = IL-6 level of virus-infected Vero cells (ELISA)
# Method: as §1
# TNF-α = TNF-α level of virus-infected Vero cells (ELISA)
# Method: as §1
# [2] = FAVIPIRAVIR-AZITHROMYCIN series, read-out: Cell Viability (%)
# [3] = HYDROXYCHLOROQUINE-AZITHROMYCIN series, read-out: Cell Viability (%)
# [4] = LOPIRITO-AZITHROMYCIN series, read-out: Viability Cell (%)
# [5] = HYDROXYCHLOROQUINE-DOXYCYCLINE series, read-out: Cell viability (%)
# [6] = LOPIRITO-DOXYCYCLINE series, read-out: Cell Viability (%)
smiles,measurement,setting,value
"CC[C@H]1OC(=O)[C@H](C)[C@@H](O[C@H]2C[C@@](C)(OC)[C@@H](O)[C@H](C)O2)[C@H](C)[C@@H](O[C@@H]2O[C@H](C)C[C@H](N(C)C)[C@H]2O)[C@](C)(O)C[C@@H](C)CN(C)[C@H](C)[C@@H](O)[C@]1(C)O [AZI, Azithromycin]","viability at 48 h, 0.2 μg/mL",[1]; [2],115%
same,"viability at 48 h, 2 μg/mL",[1]; [2],107%
same,"viability at 48 h, 10 μg/mL",[1]; [2],110%
same,"viability at 48 h, 100 μg/mL",[1]; [2],139%
same,"viability at 48 h, 400 μg/mL",[1]; [2],90.9%
same,"viability at 48 h, 2 μg/mL",[1]; [3],94.2%
same,"viability at 48 h, 10 μg/mL",[1]; [3],104%
same,"viability at 48 h, 100 μg/mL",[1]; [3],110%
same,"viability at 48 h, 400 μg/mL",[1]; [3],68.9%
same,"viability at 48 h, 0.2 μg/mL",[1]; [4],84.7%
same,"viability at 48 h, 2 μg/mL",[1]; [4],81.2%
same,"viability at 48 h, 10 μg/mL",[1]; [4],84.6%
same,"viability at 48 h, 100 μg/mL",[1]; [4],89.5%
same,"viability at 48 h, 400 μg/mL",[1]; [4],81.2%
same,Virus Titer,"SARS-CoV-2 virus; 15 μg/mL, 24-h",38.18 viral protein fg/mL
same,Virus Titer,"SARS-CoV-2 virus; 62.5 μg/mL, 48-h",38.78 viral protein fg/mL
same,IC50,"SARS-CoV-2 virus; 24h, MoI 0.04",51.9 µg/mL
same,IC50,"SARS-CoV-2 virus; 48h, MoI 0.04",19.6 µg/mL
same,IC50,"SARS-CoV-2 virus; 72h, MoI 0.04",< 10 µg/mL
same,IL-10,"IL-10; 15 μg/mL, 24-h",32.78 ± 1.18 pg/mL
same,IL-10,"IL-10; 15 μg/mL, 48-h",152.34 ± 1.72 pg/mL
same,IL-10,"IL-10; 15 μg/mL, 72-h",609.92 ± 1.48 pg/mL
same,IL-10,"IL-10; 15 μg/mL, 24h",↗↗ (15 μg/mL; 24h)
same,IL-10,"IL-10; 62.5 μg/mL, 24-h",53.50 ± 1.85 pg/mL
same,IL-10,"IL-10; 62.5 μg/mL, 48-h",91.92 ± 1.45 pg/mL
same,IL-10 levels (in words),IL-10; Table 5,increased
same,IL-6,"IL-6; 15 μg/mL, 24-h",14.55 ± 2.22 ng/L
same,IL-6,"IL-6; 15 μg/mL, 72-h",565.92 ± 0.00 ng/L
same,IL-6,"IL-6; 62.5 μg/mL, 24-h",15.92 ± 0.57 ng/L
same,IL-6,"IL-6; 62.5 μg/mL, 48-h",33.47 ± 3.98 ng/L
same,IL-6,"IL-6; 62.5 μg/mL, 72-h",529.11 ± 0.95 ng/L
same,IL-6 (in words),IL-6; Table 5,reduced
same,TNF-α,"TNF-α; 15 μg/mL, 24-h",6.994 ± 1.32 pg/mL
same,TNF-α,"TNF-α; 15 μg/mL, 48-h",478 ± 1.50 pg/mL
same,TNF-α,"TNF-α; 15 μg/mL, 72-h",777.34 ± 1.67 pg/mL
same,TNF-α,"TNF-α; 62.5 μg/mL, 24-h",86.00 ± 2.84 pg/mL
same,TNF-α,"TNF-α; 62.5 μg/mL, 48-h",381.30 ± 1.28 pg/mL
same,TNF-α,"TNF-α; 62.5 μg/mL, 72-h",641.33 ± 0.00 pg/mL
same,TNF-α,"TNF-α; 24, 48, and 72 hours, cell without concentration",No effects
same,TNF-α levels (in words),TNF-α; Table 5,no effects
"C[C@H]1c2cccc(O)c2C(=O)C2=C(O)[C@]3(O)C(=O)C(C(N)=O)=C(O)[C@@H](N(C)C)[C@@H]3[C@@H](O)[C@@H]21 [DOXY, Doxycycline]","viability at 48 h, 0.2 μg/mL",[1]; [5],96.9%
same,"viability at 48 h, 2 μg/mL",[1]; [5],112%
same,"viability at 48 h, 10 μg/mL",[1]; [5],117%
same,"viability at 48 h, 100 μg/mL",[1]; [5],120%
same,"viability at 48 h, 400 μg/mL",[1]; [5],96.5%
same,CC50 at 48 h,"[1]; LOPIRITO-DOXY experiment (Fig 6), 48 hours, CompuSyn, n = 3, read-out: CC50",16500 µg/mL
same,"viability at 48 h, 0.2 μg/mL",[1]; [6],103%
same,"viability at 48 h, 2 μg/mL",[1]; [6],104%
same,"viability at 48 h, 10 μg/mL",[1]; [6],105%
same,"viability at 48 h, 100 μg/mL",[1]; [6],92.8%
same,"viability at 48 h, 400 μg/mL",[1]; [6],91.7%
same,Virus Titer,"SARS-CoV-2 virus; 1 μg/mL, 24-h",38.42 viral protein fg/mL
same,Virus Titer,"SARS-CoV-2 virus; 15 μg/mL, 24-h",36.90 viral protein fg/mL
same,Virus Titer,"SARS-CoV-2 virus; 15 μg/mL, 48-h",37.85 viral protein fg/mL
same,Virus Titer,"SARS-CoV-2 virus; 15 μg/mL, 72-h",39.15 viral protein fg/mL
same,Drug concentration that produced an undetected virus copy number,"SARS-CoV-2 virus; MoI 0.04, at 24, 48, and/or 72 hours' incubation",37.5 µg/mL
same,IC50,"SARS-CoV-2 virus; 24h, MoI 0.04",18 µg/mL
same,IC50,"SARS-CoV-2 virus; 48h, MoI 0.04",4.7 µg/mL
same,IC50,"SARS-CoV-2 virus; 72h, MoI 0.04",0.4 µg/mL
same,Results (virus detection),"SARS-CoV-2 virus; at the drug concentration of the same line of Table 4, MoI 0.04","24, 48, 72h virus undetected"
same,IL-10,"IL-10; 1 μg/mL, 24-h",35.31 ± 0.22 pg/mL
same,IL-10,"IL-10; 1 μg/mL, 48, 72h","↗↗ (1 μg/mL; 48, 72h)"
same,IL-10,"IL-10; 1 μg/mL, 48-h",219.74 ± 0.08 pg/mL
same,IL-10,"IL-10; 1 μg/mL, 72-h",415.82 ± 0.23 pg/mL
same,IL-10,"IL-10; 15 μg/mL, 24-h",35.31 ± 1.53 pg/mL
same,IL-10,"IL-10; 15 μg/mL, 48-h",219.74 ± 1.41 pg/mL
same,IL-10,"IL-10; 15 μg/mL, 72-h",702.97 ± 0.07 pg/mL
same,IL-6,"IL-6; 1 μg/mL, 24-h",21.06 ± 1.43 ng/L
same,IL-6,"IL-6; 1 μg/mL, 48-h",36.93 ± 0.93 ng/L
same,IL-6,"IL-6; 1 μg/mL, 72-h",40.56 ± 0.56 ng/L
same,IL-6,"IL-6; 1 μg/mL, 24h",↘↘ (1 μg/mL; 24h)
same,IL-6,"IL-6; 15 μg/mL, 24-h",13.34 ± 0.86 ng/L
same,IL-6,"IL-6; 15 μg/mL, 48-h",37.98 ± 0.94 ng/L
same,IL-6,"IL-6; 15 μg/mL, 72-h",43.01 ± 0.05 ng/L
same,TNF-α,"TNF-α; 1 μg/mL, 24-h",1.98 ± 0.00 pg/mL
same,TNF-α,"TNF-α; 1 μg/mL, 48-h",408.19 ± 0.77 pg/mL
same,TNF-α,"TNF-α; 1 μg/mL, 72-h",511.16 ± 3.09 pg/mL
same,TNF-α,"TNF-α; 1 μg/mL, 24h",↘↘ (1 μg/mL; 24h)
same,TNF-α,"TNF-α; 15 μg/mL, 24-h",1.98 ± 0.84 pg/mL
same,TNF-α,"TNF-α; 15 μg/mL, 48-h",408.19 ± 0.84 pg/mL
same,TNF-α,"TNF-α; 15 μg/mL, 72-h",529.12 ± 0.46 pg/mL
